# Assay results as given in ChEMBL document CHEMBL1150030, “Benzolactam growth hormone secretagogues: replacements for the 2-tetrazole moiety of L-692,429” (1994).
# Species: Rattus norvegicus
# Experiment: In vitro effective dose for the growth hormone(GH) release in rat pituitary cells
# Format: functional
# Conditions: Pituitary gland cell, read-out: ED50 (the source's name)
row,Structure (SMILES),EC50
1,CC(C)(N)CC(=O)N[C@@H]1CCc2ccccc2N(Cc2ccc(-c3ccccc3S(N)(=O)=O)cc2)C1=O,3 µM
2,CC(C)(N)CC(=O)N[C@@H]1CCc2ccccc2N(Cc2ccc(-c3ccccc3C(N)=O)cc2)C1=O,0.08 µM
3,CC(C)(N)CC(=O)N[C@@H]1CCc2ccccc2N(Cc2ccc(-c3ccccc3-c3nnnn3CC(=O)O)cc2)C1=O,1 µM
4,CC(C)(N)CC(=O)N[C@@H]1CCc2ccccc2N(Cc2ccc(-c3ccccc3-c3nnnn3Cc3ccccc3)cc2)C1=O,0.7 µM
5,CC(C)(N)CC(=O)N[C@@H]1CCc2ccccc2N(Cc2ccc(-c3ccccc3S(=O)(=O)NC(=O)c3ccccc3)cc2)C1=O,3 µM
6,Cn1nnc(-c2ccccc2-c2ccc(CN3C(=O)[C@H](NC(=O)CC(C)(C)N)CCc4ccccc43)cc2)n1,0.3 µM
7,CC(C)(N)CC(=O)N[C@@H]1CCc2ccccc2N(Cc2ccc(-c3ccccc3C(=O)O)cc2)C1=O,3 µM
8,CC(C)(N)CC(=O)N[C@@H]1CCc2ccccc2N(Cc2ccc(-c3ccccc3-c3nnn(Cc4ccccc4)n3)cc2)C1=O,1 µM
9,Cc1ccccc1-c1ccc(CN2C(=O)[C@H](NC(=O)CC(C)(C)N)CCc3ccccc32)cc1,1 µM
10,CC(O)Cn1nnc(-c2ccccc2-c2ccc(CN3C(=O)[C@H](NC(=O)CC(C)(C)N)CCc4ccccc43)cc2)n1 (some centres not stated),0.05 µM
11,CC(C)(N)CC(=O)N[C@@H]1CCc2ccccc2N(Cc2ccc(-c3ccccc3C#N)cc2)C1=O (racemic),5 µM
12,Cn1nnnc1-c1ccccc1-c1ccc(CN2C(=O)[C@H](NC(=O)CC(C)(C)N)CCc3ccccc32)cc1,0.5 µM
13,CC(C)(N)CC(=O)N[C@@H]1CCc2ccccc2N(Cc2ccc(-c3ccccc3-c3nn[nH]n3)cc2)C1=O,0.06 µM
14,CC(C)(N)CC(=O)N[C@@H]1CCc2ccccc2N(Cc2ccc(-c3ccccc3S(=O)(=O)NC(C)(C)C)cc2)C1=O,4 µM
15,CC(O)Cn1nnnc1-c1ccccc1-c1ccc(CN2C(=O)[C@H](NC(=O)CC(C)(C)N)CCc3ccccc32)cc1 (some centres not stated),0.05 µM
16,COC(=O)c1ccccc1-c1ccc(CN2C(=O)[C@H](NC(=O)CC(C)(C)N)CCc3ccccc32)cc1 (racemic),2 µM
17,CC(C)(N)CC(=O)N[C@@H]1CCc2ccccc2N(Cc2ccc(-c3ccccc3-c3nnn(CC(=O)O)n3)cc2)C1=O,0.2 µM
